Assay results taken from paper PMC5591577, “Computationally-guided optimization of small-molecule inhibitors of the Aurora A kinase–TPX2 protein–protein interaction” (Chemical Communications (Cambridge, England), 2017).

How the values were obtained:
[1] = target: T1, Aurora A kinase (Homo sapiens, UniProt O14965); assay: X-ray crystal structure (Ki by fluorescence anisotropy, from ref […]); type: binding; design: gene AURKA; conditions: cited from earlier work
T1 sequence (O14965 1-403): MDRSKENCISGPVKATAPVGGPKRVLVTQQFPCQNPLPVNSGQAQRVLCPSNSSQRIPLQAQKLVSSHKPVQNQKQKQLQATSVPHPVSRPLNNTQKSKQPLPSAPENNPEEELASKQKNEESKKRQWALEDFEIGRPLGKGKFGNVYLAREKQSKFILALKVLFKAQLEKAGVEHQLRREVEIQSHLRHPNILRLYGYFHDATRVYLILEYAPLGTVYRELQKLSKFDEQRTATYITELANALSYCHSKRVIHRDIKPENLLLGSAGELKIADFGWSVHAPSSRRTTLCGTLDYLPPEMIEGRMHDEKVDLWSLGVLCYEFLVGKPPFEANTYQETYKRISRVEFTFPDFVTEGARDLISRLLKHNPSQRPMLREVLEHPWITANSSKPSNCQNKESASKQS

[2] = target: T1, Aurora A kinase; assay: fluorescence anisotropy competition assay (TPX2 displacement); type: binding; design: gene AURKA; with TPX2; conditions: read-out: K i ^b

Ki [2] [µM] | Structure (SMILES) | Ki [1] [µM]
– | O=C(O)c1cc(-c2cccc(F)c2)nc2ccccc12 [compound 2] | 16.5
8.7 | Cc1ccc(-c2cc(C(=O)O)c3ccccc3n2)cc1F [compound 9] | –
2.3 | Cc1ccc(-c2cc(C(=O)O)c3ccccc3n2)cc1Br [compound 10] | –
